Data on 77 sequences can be found in the supplement of paper PMC11208160.

The nature of this data set: recombinant barcode read abundance after kanamycin selection (control-corrected) (log10(CPM+1)); higher = more efficient recombination; sequences stand for … in AGTGCAGAGAAAATCGGCCAGTTTTCTCTGCCTGCAGTCCGCATGCCGT…AGATTTATGCAGCGGACTGCCTTTCTCCCAAAGTGATAAACCGGACAGTATCATGGACCGGTTTTCCCGGTAATCCGTATTTGCAAGGTTGGTTTCACT; site = the 11-nt target. An outline of the steps:
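Targets and IS621 bridge RNA target-binding loops were paired in oligos, each with a promoter, a barcode and the J23119-driven first 104 bridge RNA bases. A vector carrying the remaining 73 bp and a T7-inducible recombinase received these by Gibson cloning, and the pool was co-electroporated into E. coli with a donor plasmid. Duplicate plates contained chloramphenicol/ampicillin LB agar (control) or chloramphenicol/ampicillin/kanamycin with 0.1 mM IPTG. Recombination efficiency comes from averaged, control-corrected counts per million of recombinant-junction barcodes, reported as log10(CPM+1).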
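Further: IS621 recombinase and bridge RNA in Escherichia coli cells.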

For the sequence “TATATAACTTGGGTTCTAACCTGTTGCCT (site TATACAACTAG)”, the “recombinant barcode read abundance (log10)” value was determined as 0.0941.

On to “TATATAACTTGGGTTCTAACCTGTTGCCT (site TATAGAACTAG)”, for which the “recombinant barcode read abundance (log10)” value was 0.119.

As for “TATATAACTTGGGTTCTAACCTGTTGCCT (site TATATAACTAG)”, the “recombinant barcode read abundance (log10)” value was 0.125.

In the case of “TATCAGACTTGGGTTCTAACCTGTTGCCA (site TATCAGACTTG)”, the “recombinant barcode read abundance (log10)” value was 0.639.

Take “TATCAGACTTGGGTTCTAACCTGTTGCCA (site TATCTGACTAG)”: the “recombinant barcode read abundance (log10)” value is 0.119.

For the sequence “TATCCGACTTGGGTTCTAACCTGTTGCCG (site TATCCGACTAG)”, the “recombinant barcode read abundance (log10)” value turned out to be 0.224.

Take “TATCCGACTTGGGTTCTAACCTGTTGCCG (site TATCCGACTCG)”: the “recombinant barcode read abundance (log10)” value worked out at 0.396.

For the sequence “TATCCGACTTGGGTTCTAACCTGTTGCCG (site TATCCGACTGG)”, the “recombinant barcode read abundance (log10)” value was determined as 0.386.

As to “TATCCGACTTGGGTTCTAACCTGTTGCCG (site TATCCGACTTG)”, the “recombinant barcode read abundance (log10)” value is 0.11.

Consider “TATCCGACTTGGGTTCTAACCTGTTGCCT (site TATCCGACTAG)”, for which the “recombinant barcode read abundance (log10)” value amounted to 1.12.

As for “TATCCGACTTGGGTTCTAACCTGTTGCCT (site TATCCGACTCG)”, the “recombinant barcode read abundance (log10)” value was determined as 0.553.

Consider “TATCCGACTTGGGTTCTAACCTGTTGCCT (site TATCCGACTGG)”, for which the “recombinant barcode read abundance (log10)” value was 0.0369.

“TATCCGACTTGGGTTCTAACCTGTTGCCT (site TATCCGACTTG)”: the “recombinant barcode read abundance (log10)” value came to 0.0377.

With “TATGACGCTTGGGTTCTAACCTGTTGCCT (site TAAGACGCTAG)”, the “recombinant barcode read abundance (log10)” value was determined as 0.261.

Take “TATGACGCTTGGGTTCTAACCTGTTGCCT (site TACGACGCTAG)”: the “recombinant barcode read abundance (log10)” value stood at 0.124.

Take “TATGACGCTTGGGTTCTAACCTGTTGCCT (site TAGGACGCTAG)”: the “recombinant barcode read abundance (log10)” value came out at 0.00539.

On to “TATGACGCTTGGGTTCTAACCTGTTGCCT (site TATGACGCTAG)”, for which the “recombinant barcode read abundance (log10)” value was 1.12.

Take “TATGCGGCTTGGGTTCTAACCTGTTGCCT (site TATGAGGCTAG)”: the “recombinant barcode read abundance (log10)” value stood at 0.

Take “TATGCGGCTTGGGTTCTAACCTGTTGCCT (site TATGCGGCTAG)”: the “recombinant barcode read abundance (log10)” value came out at 0.34.

For “TATGCGGCTTGGGTTCTAACCTGTTGCCT (site TATGGGGCTAG)”, the “recombinant barcode read abundance (log10)” value was found to be 0.193.

Regarding “TATGCGGCTTGGGTTCTAACCTGTTGCCT (site TATGTGGCTAG)”, the “recombinant barcode read abundance (log10)” value was 0.11.

For “TATTAATCTTGGGTTCTAACCTGTTGCCT (site CATTAGTCTAG)”, the “recombinant barcode read abundance (log10)” value was determined as 0.0101.

As to “TATTAATCTTGGGTTCTAACCTGTTGCCT (site TATTAATCTAG)”, the “recombinant barcode read abundance (log10)” value is 0.0472.

Turning to “TATTATACTTGGGTTCTAACCTGTTGCCT (site TATTATACTAA)”, the “recombinant barcode read abundance (log10)” value was determined as 0.00549.

For the sequence “TATTATACTTGGGTTCTAACCTGTTGCCT (site TATTATACTAC)”, the “recombinant barcode read abundance (log10)” value turned out to be 0.0157.

With “TATTATACTTGGGTTCTAACCTGTTGCCT (site TATTATACTAG)”, the “recombinant barcode read abundance (log10)” value was 0.035.

Take “TATTATACTTGGGTTCTAACCTGTTGCCT (site TATTATACTAT)”: the “recombinant barcode read abundance (log10)” value came out at 0.467.

Regarding “TATTCACCTTGGGTTCTAACCTGTTGCCT (site AATTCACCTAG)”, the “recombinant barcode read abundance (log10)” value was 0.0667.

On to “TATTCACCTTGGGTTCTAACCTGTTGCCT (site CATTCACCTAG)”, for which the “recombinant barcode read abundance (log10)” value came out at 0.0903.

Turning to “TATTCACCTTGGGTTCTAACCTGTTGCCT (site GATTCACCTAG)”, the “recombinant barcode read abundance (log10)” value stood at 0.0774.

Take “TATTCACCTTGGGTTCTAACCTGTTGCCT (site TATTCACCTAG)”: the “recombinant barcode read abundance (log10)” value stood at 0.358.

On to “TATTCTCCTTGGGTTCTAACCTGTTGCCT (site TATTCTCCTAA)”, for which the “recombinant barcode read abundance (log10)” value was determined as 0.212.

Regarding “TATTCTCCTTGGGTTCTAACCTGTTGCCT (site TATTCTCCTAC)”, the “recombinant barcode read abundance (log10)” value stood at 0.0221.

On to “TATTCTCCTTGGGTTCTAACCTGTTGCCT (site TATTCTCCTAG)”, for which the “recombinant barcode read abundance (log10)” value amounted to 0.0657.

For “TATTCTCCTTGGGTTCTAACCTGTTGCCT (site TATTCTCCTAT)”, the “recombinant barcode read abundance (log10)” value came out at 0.0206.

In the case of “TATTCTCCTTGGGTTCTAACCTGTTGCGT (site TATTCTCCTAA)”, the “recombinant barcode read abundance (log10)” value was found to be 0.0153.

Take “TATTCTCCTTGGGTTCTAACCTGTTGCGT (site TATTCTCCTAC)”: the “recombinant barcode read abundance (log10)” value is 0.243.

“TATTCTCCTTGGGTTCTAACCTGTTGCGT (site TATTCTCCTAG)”: the “recombinant barcode read abundance (log10)” value is 0.12.

For the sequence “TATTCTCCTTGGGTTCTAACCTGTTGCGT (site TATTCTCCTAT)”, the “recombinant barcode read abundance (log10)” value was determined as 0.0406.

As to “TATTCTCCTTGGGTTCTAACCTGTTGCTT (site TATTCTCCTAA)”, the “recombinant barcode read abundance (log10)” value is 0.266.

Consider “TATTCTCCTTGGGTTCTAACCTGTTGCTT (site TATTCTCCTAC)”, for which the “recombinant barcode read abundance (log10)” value is 0.0156.

On to “TATTCTCCTTGGGTTCTAACCTGTTGCTT (site TATTCTCCTAG)”, for which the “recombinant barcode read abundance (log10)” value worked out at 0.0207.

Turning to “TATTCTCCTTGGGTTCTAACCTGTTGCTT (site TATTCTCCTAT)”, the “recombinant barcode read abundance (log10)” value was determined as 0.0253.

Regarding “TATTGGACTTGGGTTCTAACCTGTTGCAG (site TATTGGACTAT)”, the “recombinant barcode read abundance (log10)” value was 0.264.

Turning to “TATTGGACTTGGGTTCTAACCTGTTGCAG (site TATTGGACTCT)”, the “recombinant barcode read abundance (log10)” value stood at 1.05.

“TATTGGACTTGGGTTCTAACCTGTTGCAG (site TATTGGACTGT)”: the “recombinant barcode read abundance (log10)” value worked out at 0.0393.

As to “TATTGGACTTGGGTTCTAACCTGTTGCAG (site TATTGGACTTT)”, the “recombinant barcode read abundance (log10)” value came to 0.14.

Turning to “TATTTAGCTTGGGTTCTAACCTGTTGCGG (site ACCAACACTAA)”, the “recombinant barcode read abundance (log10)” value was determined as 0.0937.

“TATTTAGCTTGGGTTCTAACCTGTTGCGG (site TATTTAGCTCC)”: the “recombinant barcode read abundance (log10)” value turned out to be 0.835.

On to “TATTTGCCTTGGGTTCTAACCTGTTGCCT (site TAATTGCCTAG)”, for which the “recombinant barcode read abundance (log10)” value turned out to be 0.0398.

Turning to “TATTTGCCTTGGGTTCTAACCTGTTGCCT (site TACTTGCCTAG)”, the “recombinant barcode read abundance (log10)” value is 0.

Take “TATTTGCCTTGGGTTCTAACCTGTTGCCT (site TAGTTGCCTAG)”: the “recombinant barcode read abundance (log10)” value was found to be 0.408.

Take “TATTTGCCTTGGGTTCTAACCTGTTGCCT (site TATTTGCCTAG)”: the “recombinant barcode read abundance (log10)” value came out at 0.

For “TCAATAGCTTGGGTTCTAACCTGTTGCAC (site AAGCCGCCTAA)”, the “recombinant barcode read abundance (log10)” value was determined as 0.204.

In the case of “TCAATAGCTTGGGTTCTAACCTGTTGCAC (site TCAATAGCTGT)”, the “recombinant barcode read abundance (log10)” value worked out at 1.28.

Turning to “TCACACTCTTGGGTTCTAACCTGTTGCCT (site TCACACTCTAG)”, the “recombinant barcode read abundance (log10)” value was determined as 1.59.

“TCACACTCTTGGGTTCTAACCTGTTGCCT (site TCCCACTCTAG)”: the “recombinant barcode read abundance (log10)” value is 0.111.

Regarding “TCACACTCTTGGGTTCTAACCTGTTGCCT (site TCGCACTCTAG)”, the “recombinant barcode read abundance (log10)” value was 0.101.

As for “TCACACTCTTGGGTTCTAACCTGTTGCCT (site TCTCACTCTAG)”, the “recombinant barcode read abundance (log10)” value was 0.114.

Regarding “TCACCACCTTGGGTTCTAACCTGTTGCCT (site GAACCACCTAG)”, the “recombinant barcode read abundance (log10)” value is 0.028.

For “TCACCACCTTGGGTTCTAACCTGTTGCCT (site TCACCACCTAG)”, the “recombinant barcode read abundance (log10)” value is 0.744.

Consider “TCACCTTCTTGGGTTCTAACCTGTTGCCT (site TCACCTTCTAG)”, for which the “recombinant barcode read abundance (log10)” value came to 0.274.

On to “TCACCTTCTTGGGTTCTAACCTGTTGCCT (site TCACTTCCTAG)”, for which the “recombinant barcode read abundance (log10)” value amounted to 0.0695.

Regarding “TCACGTCCTTGGGTTCTAACCTGTTGCAG (site TCACGTCCTCT)”, the “recombinant barcode read abundance (log10)” value was determined as 0.829.

As to “TCACGTCCTTGGGTTCTAACCTGTTGCAG (site TCGCGTCCTCT)”, the “recombinant barcode read abundance (log10)” value is 0.183.

Consider “TCAGCATCTTGGGTTCTAACCTGTTGCCT (site TCAGAATCTAG)”, for which the “recombinant barcode read abundance (log10)” value was found to be 0.0342.

Take “TCAGCATCTTGGGTTCTAACCTGTTGCCT (site TCAGCATCTAG)”: the “recombinant barcode read abundance (log10)” value was 0.457.

Take “TCAGCATCTTGGGTTCTAACCTGTTGCCT (site TCAGGATCTAG)”: the “recombinant barcode read abundance (log10)” value is 0.0504.

As to “TCAGCATCTTGGGTTCTAACCTGTTGCCT (site TCAGTATCTAG)”, the “recombinant barcode read abundance (log10)” value turned out to be 0.0947.

With “TCAGGATCTTGGGTTCTAACCTGTTGCCT (site TCAGAATCTAG)”, the “recombinant barcode read abundance (log10)” value was found to be 0.201.

For “TCAGGATCTTGGGTTCTAACCTGTTGCCT (site TCAGCATCTAG)”, the “recombinant barcode read abundance (log10)” value is 0.0751.

In the case of “TCAGGATCTTGGGTTCTAACCTGTTGCCT (site TCAGGATCTAG)”, the “recombinant barcode read abundance (log10)” value worked out at 0.679.

Turning to “TCAGGATCTTGGGTTCTAACCTGTTGCCT (site TCAGTATCTAG)”, the “recombinant barcode read abundance (log10)” value was 0.291.

Take “TCATATACTTGGGTTCTAACCTGTTGCCT (site ACATTTACTAG)”: the “recombinant barcode read abundance (log10)” value turned out to be 0.238.

For “TCATATACTTGGGTTCTAACCTGTTGCCT (site TCATATACTAG)”, the “recombinant barcode read abundance (log10)” value came out at 0.553.

For “TCATATCCTTGGGTTCTAACCTGTTGCCT (site CTCCGAACTCT)”, the “recombinant barcode read abundance (log10)” value amounted to 0.00468.

On to “TCATATCCTTGGGTTCTAACCTGTTGCCT (site TCATATCCTAG)”, for which the “recombinant barcode read abundance (log10)” value is 0.167.
